# Reference: patent US11464802B2, “3-substituted piperidine compounds for Cbl-b inhibition, and use thereof” (Nurix Therapeutics, Inc., priority 2019, dated 2022)
# Experiments:
# [1] = test system: primary human total T-cells; test: Primary human total T-cell activation: CD25 surface staining, Biological Example 2; type: cell-based; settings: 48 hours, fold change over baseline; for fold induction at 1 µM: inhibitor 1 μM
# Cbl-b [2] = molecular target: T1, Cbl-b (Homo sapiens (Human), UniProt Q13191); test: Cbl-b displacement assay (Cbl-b inhibition assay), Biological Example 12; type: binding; settings: 0.125 nM Cbl-b final concentration (Low); Table 12-1; read-out: Cbl-b IC50 (Low)
# T1 sequence (Q13191 36-427): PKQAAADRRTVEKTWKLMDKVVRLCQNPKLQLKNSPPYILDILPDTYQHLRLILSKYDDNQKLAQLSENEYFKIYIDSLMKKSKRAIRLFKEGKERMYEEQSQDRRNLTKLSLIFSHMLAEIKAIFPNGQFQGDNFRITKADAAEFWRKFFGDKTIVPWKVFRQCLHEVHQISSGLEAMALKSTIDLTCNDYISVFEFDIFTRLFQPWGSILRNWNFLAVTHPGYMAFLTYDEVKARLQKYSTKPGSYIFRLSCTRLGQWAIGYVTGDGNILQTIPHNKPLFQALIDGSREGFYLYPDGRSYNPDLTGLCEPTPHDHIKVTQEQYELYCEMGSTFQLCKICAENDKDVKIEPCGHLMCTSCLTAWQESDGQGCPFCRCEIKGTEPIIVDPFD
# Protocol: (§1) Candidate compounds were evaluated for their ability to bind and inhibit Cbl-b, an E3 ubiquitin-protein ligase, as evidenced by their ability to displace a fluorophore-labeled probe bound to Cbl-b.
# (§2) The ability of candidate compounds to displace a known inhibitor and thereby inhibit Cbl-b activity was measured by monitoring the interaction of Cbl-b with a fluorophore-labeled probe in the presence of the candidate compound. A truncated variant of Cbl-b (UniProt number Q13191) containing residues 36-427 and an Avitag at its N-terminus was co-expressed with BirA biotin ligase and purified using a standard protocol (see Dou et al., Nature Structural and Molecular Biology 8: 982-987, 2013; Avidity LLC).
# (§3) Fluorescently-labeled inhibitor probe was synthesized and tagged with BODIPY FL. Cbl-b displacement assays were performed in a 384-well plate at room temperature in a 10 μl reaction volume by pre-incubating 0.5 nM Cbl-b or 0.125 nM Cbl-b (final concentration, indicated as “High” and “Low”, respectively) in an assay buffer containing 20 mM HEPES pH 7.5, 150 mM NaCl, 0.01% Triton X-100, 0.01% BSA and 0.5 mM TCEP in the presence of a candidate compound in 1% DMSO (final concentration) for 1 hour. After incubation in the presence of the candidate compound, the plate was incubated for an additional 1 hour in the presence of an approximate EC40 binding saturation consisting of 150 nM fluorescently-labeled inhibitor probe and 2 nM Streptavidin-Terbium (Cisbio) (final concentrations). Following the 1 hour incubation, the plates were read for TR-FRET signal at 520/620 nM using an Envision plate reader (Perkin Elmer).
# (§4) The resulting data for the Cbl-b activity assays were analyzed using standard methods to determine the IC50 values for the tested compounds.
# [3] = test system: primary human total T-cells; test: Primary human total T-cell activation: CD25 surface staining, Biological Example 9; type: cell-based; settings: 48 hours, fold change over baseline; for fold induction at 0.3 µM: inhibitor 0.3 μM; for fold induction at 0.3 µM / fold induction at 3 µM: Table 9-1; for fold induction at 1 µM: inhibitor 1 μM; for fold induction at 3 µM: inhibitor 3 μM
# [4] = test system: primary human total T-cells; test: Primary human total T-cell activation: IL-2 secretion, Biological Example 2; type: cell-based; settings: 48 hours, fold change over baseline; for fold induction at 1 µM: inhibitor 1 μM
# [5] = test system: primary human total T-cells; test: Primary human total T-cell activation: IL-2 secretion, Biological Example 9; type: cell-based; settings: 48 hours, fold change over baseline; for fold induction at 0.3 µM: inhibitor 0.3 μM; for fold induction at 0.3 µM / fold induction at 3 µM: Table 9-1; for fold induction at 1 µM: inhibitor 1 μM; for fold induction at 3 µM: inhibitor 3 μM
# Cbl-b [6] = molecular target: T1, Cbl-b; test: Cbl-b displacement assay (Cbl-b inhibition assay), Biological Example 8; type: binding; settings: 0.125 nM Cbl-b final concentration (Low); Table 8-1; read-out: Cbl-b IC50 (Low)
# Protocol: as §1, §2, §3, §4
# Cbl-b [7] = molecular target: T1, Cbl-b; test: Cbl-b displacement assay (Cbl-b inhibition assay), TR-FRET probe displacement, Biological Example 1; type: binding
# Method in brief: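 TR-FRET displacement of a BODIPY FL-labelled inhibitor probe (150 nM, ~EC40) from biotin-Avitag truncated Cbl-b, detected via 2 nM streptavidin-Tb, 1 h, room temperature. Compound in 1% DMSO pre-incubated 1 h with Cbl-b at 0.5 nM (High) or 0.125 nM (Low) in 20 mM HEPES pH 7.5, 150 mM NaCl, 0.5 mM TCEP.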
# [8] = test system: primary human total T-cells; test: Primary human total T-cell activation: IL-2 secretion, Biological Example 13; type: cell-based; settings: 48 hours, fold change over baseline; for fold induction at 0.3 µM: inhibitor 0.3 μM; for fold induction at 0.3 µM / fold induction at 3 µM: Table 13-1; for fold induction at 1 µM: inhibitor 1 μM; for fold induction at 3 µM: inhibitor 3 μM
# [9] = test system: primary human total T-cells; test: Primary human total T-cell activation: CD25 surface staining, Biological Example 13; type: cell-based; settings: 48 hours, fold change over baseline; for fold induction at 0.3 µM: inhibitor 0.3 μM; for fold induction at 0.3 µM / fold induction at 3 µM: Table 13-1; for fold induction at 1 µM: inhibitor 1 μM; for fold induction at 3 µM: inhibitor 3 μM
# [10] = anti-CD3/anti-CD28 co-stimulation, inhibitor 0.3 μM
# [11] = anti-CD3/anti-CD28 co-stimulation
# [12] = anti-CD3/anti-CD28 co-stimulation, Table 9-1, read-out: CD25 staining CD3/CD28 1 μM
# [13] = anti-CD3 alone, Table 9-1, read-out: CD25 staining CD3 1 μM
# [14] = anti-CD3/anti-CD28 co-stimulation, Table 9-1, read-out: IL-2 secretion CD3/CD28 1 μM
# [15] = anti-CD3 alone, Table 9-1, read-out: IL-2 secretion CD3 1 μM
# [16] = anti-CD3/anti-CD28 co-stimulation, Table 13-1, read-out: IL-2 secretion CD3/CD28 1 μM
# [17] = anti-CD3 alone, Table 13-1, read-out: IL-2 secretion CD3 1 μM
# [18] = anti-CD3/anti-CD28 co-stimulation, Table 13-1, read-out: CD25 staining CD3/CD28 1 μM
# [19] = anti-CD3 alone, Table 13-1, read-out: CD25 staining CD3 1 μM
IC50 (Cbl-b [2]) [nM],IC50 (Cbl-b [6]) [nM],Compound,"fold induction at 0.3 µM [3, 11]","fold induction at 1 µM [3, 12]","fold induction at 1 µM [3, 13]",fold induction at 3 µM ([3]; anti-CD3 alone),"fold induction at 0.3 µM [5, 11]","fold induction at 1 µM [5, 14]","fold induction at 1 µM [5, 15]",fold induction at 3 µM ([5]; anti-CD3 alone),"fold induction at 0.3 µM [8, 11]","fold induction at 1 µM [8, 16]","fold induction at 1 µM [8, 17]",fold induction at 3 µM ([8]; anti-CD3 alone),"fold induction at 0.3 µM [9, 11]","fold induction at 1 µM [9, 18]","fold induction at 1 µM [9, 19]",fold induction at 3 µM ([9]; anti-CD3 alone),other results
< 1,< 1,"CCOc1cc(C2(Cc3nncn3C)COC2)cc(N2Cc3c(cc(CN4CCC[C@H](C)C4)cc3C(F)(F)F)C2=O)n1 [Compound 39, 2-(6-ethoxy-4-{3-[(4-methyl-1,2,4-triazol-3-yl)methyl]oxetan-3-yl}pyridin-2-yl)-6-{[(3S)-3-methylpiperidin-1-yl]methyl}-4-(trifluoromethyl)-3H-isoindol-1-one]",> 1.39,> 1.39,> 1.14,> 1.14,> 15,> 15,> 0.66,> 0.66,> 15,> 15,> 0.66,> 0.66,> 1.39,> 1.39,> 1.14,> 1.14,"fold induction at 0.3 µM [1, 10]: > 1.39; fold induction at 1 µM ([1]; anti-CD3/anti-CD28 co-stimulation, read-out: CD25 staining CD3/CD28 1 μM): > 1.39; fold induction at 1 µM ([1]; anti-CD3 alone, read-out: CD25 staining CD3 1 μM): > 1.14; fold induction at 3 µM ([1]; anti-CD3 alone, inhibitor 3 μM): > 1.14; fold induction at 0.3 µM [4, 10]: > 15; fold induction at 1 µM ([4]; anti-CD3/anti-CD28 co-stimulation, read-out: IL-2 secretion CD3/CD28 1 μM): > 15; fold induction at 1 µM ([4]; anti-CD3 alone, read-out: IL-2 secretion CD3 1 μM): > 0.66; fold induction at 3 µM ([4]; anti-CD3 alone, inhibitor 3 μM): > 0.66; IC50 (Cbl-b [7]; 0.125 nM Cbl-b final concentration (Low), read-out: Cbl-b activity IC50 (Low)): < 1 nM; IC50 (Cbl-b [7]; Cbl-b concentration (High or Low) not given, read-out: IC50 values in the Cbl-b inhibition assay of Biological Example 1): < 1 nM"
1 to 5,1 to 5,C[C@@H](c1cc2c(c(C(F)(F)F)c1)CN(c1cccc(C3([C@@H](F)c4nncn4C)COC3)c1)C2=O)N1CCC2(CC2)C1 [Compound 60],> 1.39,> 1.39,> 1.14,> 1.14,> 15,> 15,0.34 to 0.66,0.34 to 0.66,> 15,> 15,0.34 to 0.66,0.34 to 0.66,> 1.39,> 1.39,> 1.14,> 1.14,
> 5,> 5,Cn1cnnc1C(F)(F)[C@](C)(F)c1cccc(N2Cc3c(cc(CN4CCC(F)(F)C4)cc3C(F)(F)F)C2=O)c1 [Compound 58],< 1.24,1.25 to 1.39,< 1.04,,< 10,< 10,< 0.33,,< 10,< 10,< 0.33,,< 1.24,1.25 to 1.39,< 1.04,,
1 to 5,1 to 5,C[C@@H](c1cc2c(c(C(F)(F)F)c1)CN(c1cccc(C3(Cc4nncn4C)COC3)c1)C2=O)N1CCC(F)CC1 [Compound 61],> 1.39,> 1.39,> 1.14,> 1.14,> 15,> 15,0.34 to 0.66,0.34 to 0.66,> 15,> 15,0.34 to 0.66,0.34 to 0.66,> 1.39,> 1.39,> 1.14,> 1.14,
> 5,> 5,Cn1cnnc1C(F)(F)[C@](C)(F)c1cccc(N2Cc3c(cc(CN4CC[C@H](F)C4)cc3C(F)(F)F)C2=O)c1 [Compound 57],1.25 to 1.39,> 1.39,> 1.14,,< 10,10 to 15,< 0.33,,< 10,11 to 15,< 0.33,,1.25 to 1.39,> 1.39,> 1.14,,

# The remaining lines, values behind:
Compound,IC50 (Cbl-b [2]) [nM],IC50 (Cbl-b [6]) [nM],"fold induction at 0.3 µM [3, 11]","fold induction at 1 µM [3, 12]","fold induction at 1 µM [3, 13]",fold induction at 3 µM ([3]; anti-CD3 alone),"fold induction at 0.3 µM [5, 11]","fold induction at 1 µM [5, 14]","fold induction at 1 µM [5, 15]",fold induction at 3 µM ([5]; anti-CD3 alone),"fold induction at 0.3 µM [8, 11]","fold induction at 1 µM [8, 16]","fold induction at 1 µM [8, 17]",fold induction at 3 µM ([8]; anti-CD3 alone),"fold induction at 0.3 µM [9, 11]","fold induction at 1 µM [9, 18]","fold induction at 1 µM [9, 19]",fold induction at 3 µM ([9]; anti-CD3 alone),other results
C[C@H](c1cc2c(c(C(F)(F)F)c1)CN(c1cccc(C3(Cc4nncn4C)COC3)c1)C2=O)N1CC[C@H](F)C1 [Compound 56],> 5,> 5,1.25 to 1.39,> 1.39,> 1.14,,10 to 15,10 to 15,< 0.33,,11 to 15,11 to 15,< 0.33,,1.25 to 1.39,> 1.39,> 1.14,,
C[C@@H]1[C@@H](c2nncn2C)[C@H]1c1cccc(N2Cc3c(cccc3C(F)(F)F)C2=O)c1 [Compound 54],> 5,> 5,1.25 to 1.39,1.25 to 1.39,> 1.14,,< 10,< 10,< 0.33,,< 10,< 10,< 0.33,,1.25 to 1.39,1.25 to 1.39,> 1.14,,
C[C@@H](c1cc2c(c(C(F)(F)F)c1)CN(c1cccc(C3(Cc4nncn4C)COC3)c1)C2=O)N1CC[C@H](F)C1 [Compound 55],1 to 5,1 to 5,> 1.39,> 1.39,> 1.14,> 1.14,> 15,> 15,0.34 to 0.66,0.34 to 0.66,> 15,> 15,0.34 to 0.66,0.34 to 0.66,> 1.39,> 1.39,> 1.14,> 1.14,
